PubChem BioAssay (NCI)
Several values for one entry are separate records, joined by “and”; a condition that tells them apart may be missing. Equal entries are not always repeated.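 Briefly, cells in 96-well plates were exposed to five compound concentrations for 48 h, and endpoints were estimated by linear interpolation. GI50 = concentration required for 50% inhibition of growth. TGI denotes the concentration required for complete inhibition of growth.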

How the values were obtained:
Assay in all cases: NCI tumour cell line growth inhibition, 48 h
[1] = system: HL-60(TB) leukemia
[2] = system: KM12 colon
[3] = system: MALME-3M melanoma
[4] = system: MDA-MB-231 breast
[5] = system: OVCAR-3 ovarian
[6] = system: SF-268 CNS
[7] = system: SF-539 CNS
[8] = system: SK-OV-3 ovarian
[9] = system: SNB-19 CNS
[10] = system: SNB-75 CNS

| Structure (SMILES) | GI50 [1] [µM] | TGI [1] | GI50 [2] [µM] | TGI [2] | GI50 [3] [µM] | TGI [3] | GI50 [4] [µM] | TGI [4] | GI50 [5] [µM] | TGI [5] | GI50 [6] [µM] | TGI [6] | GI50 [7] [µM] | TGI [7] | GI50 [8] [µM] | TGI [8] | GI50 [9] [µM] | TGI [9] | GI50 [10] [µM] | TGI [10] |
| --- | --- | --- | --- | --- | --- | --- | --- | --- | --- | --- | --- | --- | --- | --- | --- | --- | --- | --- | --- | --- |
| Cc1c(N(C(=O)c2cc(-c3cc(Cl)ccc3C(=O)N3Cc4ccccc4C[C@H]3CN3CCOCC3)n(C)c2C)c2ccc(O)cc2)cc(C#N)n1C | 2.38 | 29.1 µM | 51 | > 100 µM | 20.8 | 64.3 µM | 20.2 | > 100 µM | 11 | > 100 µM | 20.5 | > 100 µM | 20.6 | > 100 µM | 17.9 | > 100 µM | 13.8 | > 100 µM | 9.79 | 30.9 µM |
| CNC(=O)c1ccc(Nc2nc(OC3CCCC3)c3c(-c4ccc5nc(C)oc5c4)c[nH]c3n2)c(OC)c1 | 29.2 | > 100 µM | 9.47 | > 100 µM | 21.6 | > 100 µM | 14 | > 100 µM | 0.427 | > 44.6 µM | > 47.2 | > 100 µM | 0.332 | > 100 µM | – | > 100 µM | 10 | > 100 µM | 0.474 | > 100 µM |
| c1cncc(-c2cc(-c3cc(-c4cccnc4)n[nH]3)[nH]n2)c1 | – | > 100 µM | – | > 100 µM | – | > 100 µM | – | > 100 µM | – | > 100 µM | – | > 100 µM | – | > 100 µM | – | > 100 µM | – | > 100 µM | – | > 100 µM |
| CCOC(=O)c1ccc2[nH]c(Cc3[nH]c4ccc(C(=O)OCC)cc4c3C)c(C)c2c1 | 3.81 | 46.8 µM | 1.51 | 20.7 µM | 3.73 | 17.7 µM | 2.4 | 12.3 µM | 3.06 | 17.6 µM | 1.41 | 15.4 µM | 1.37 | 13.3 µM | 2.04 | 16.6 µM | 3.9 | 25.9 µM | 4.2 | 23.4 µM |
| OCC1OC(O)C(N=Cc2ccc3c(c2)OCO3)C(O)C1O (stereo not drawn) | – | > 100 µM | – | > 100 µM | – | > 100 µM | – | > 100 µM | – | > 100 µM | – | > 100 µM | – | > 100 µM | – | > 100 µM | – | > 100 µM | – | > 100 µM |
| C[C@]12CC[C@H]3[C@@H](CC=C4C[C@@H](O)CC[C@@]43C)[C@@H]1C/C(=C\c1cccc(OCCCn3ccnc3)c1)[C@@H]2O | 8.1 | 34.3 µM | 11.9 | 28.7 µM | 15.7 | 35.9 µM | 13.2 | 32 µM | – | 29.9 µM | 16.8 | 37.5 µM | 8.01 | 23.7 µM | 16.2 | 32.7 µM | 17.1 | 37.6 µM | 14.1 | 28.8 µM |
| COc1ccc2c(c1)C(=O)c1c-2c(N2CCN(C(=O)CN(C)C)CC2)nc2ccccc12 | 20 | 52.4 µM | 25.4 | 83.1 µM | 23 | 58.1 µM | 13.3 | 28.9 µM | 19.5 | 58.6 µM | 17.3 | 44.3 µM | 15.1 | 30.3 µM | 19.6 | > 100 µM | 16.6 | 35.9 µM | 11.8 | 27.7 µM |
| O=C(Nc1nc(-c2ccc(Cl)cc2)cs1)c1ccc(O)c(O)c1 | 2.85 | 9.53 µM | 5.36 | 21.2 µM | 5.73 | 22.2 µM | 4.39 | 20.4 µM | 5.03 | 18.2 µM | 3.54 | 13.9 µM | 3.92 | 14.8 µM | 6.83 | 22.4 µM | 3.82 | 19.7 µM | 3.25 | 17.4 µM |
| Cc1cc(Nc2nc(N3CCOCC3)nc3ccccc23)n[nH]1 | 5.5 | 50.1 µM | 0.4 | > 100 µM | 44.2 | > 100 µM | 15 | > 100 µM | 11.5 | > 100 µM | 6.21 | 35.2 µM | 4.27 | 16.6 µM | 3.69 | 40.9 µM | 26 | > 100 µM | 1.55 | 7.49 µM |
| CN(C)c1ccc2[nH]c(O)c(C=Nc3ccc(S(N)(=O)=O)cc3)c2c1 | > 25 | > 25 µM | 1.15 | > 25 µM | > 25 | > 25 µM | > 25 | > 25 µM | > 25 | > 25 µM | > 25 | > 25 µM | > 25 | > 25 µM | > 25 | > 25 µM | > 25 | > 25 µM | > 25 | > 25 µM |
| CCSc1nc(=S)[nH]c2[nH]ncc12 | > 100 | > 100 µM | 86.5 | > 100 µM | > 100 | > 100 µM | > 100 | > 100 µM | 64.6 | > 100 µM | 51.9 | > 100 µM | 45.1 | > 100 µM | 78.9 | > 100 µM | > 100 | > 100 µM | > 100 | > 100 µM |
| Cc1cc(-c2cc(C)c(O)c(C(C)(C)C)c2)cc(C(C)(C)C)c1O | – | 26.7 µM and 32.7 µM | – | 20.8 µM and 21.3 µM | – | 28.3 µM and 41.1 µM | – | 21.4 µM and 26.2 µM | – | 28.4 µM and 27 µM | – | 23.9 µM and 29 µM | – | 28.2 µM and 35.4 µM | – | 29.2 µM and 30.4 µM | – | 27.7 µM and 26.7 µM | – | 25.4 µM and 27 µM |
| O=C(Nc1cccc(-c2nc3ccccc3[nH]2)c1)c1cccc(NC(=O)c2ccco2)c1 | 5.43 | 17.4 µM | 2.27 | 5.61 µM | 2.11 | 4.34 µM | 1.98 | 4.85 µM | 1.97 | 3.39 µM | 1.99 | 3.78 µM | 1.49 | 2.88 µM | 2.35 | 4.42 µM | 2.86 | 8.19 µM | 1.55 | 2.91 µM |
| O=[N+]([O-])c1ccccc1/C=C/C=C1c2ccccc2-c2ccccc21 | > 100 | > 100 µM | > 100 | > 100 µM | > 100 | > 100 µM | > 100 | > 100 µM | > 100 | > 100 µM | > 100 | > 100 µM | > 100 | > 100 µM | > 100 | > 100 µM | > 100 | > 100 µM | > 100 | > 100 µM |
| O=C(CSc1nc2sc3c(c2c(=O)n1-c1ccccc1)CCCCC3)N/N=C/c1ccc(F)cc1 | > 100 | > 100 µM | 6 | > 100 µM | 1.67 | 5.86 µM | 1.04 | 3.27 µM | 1.78 | 4.07 µM | 2.14 | 6.57 µM | 1.85 | 3.53 µM | 3.47 | 11.8 µM | 3.45 | 13.2 µM | 1.85 | 4.93 µM |
| CCC[C@H](Nc1nc(-c2ccc(NC(=O)NCC)c(OC)c2)ncc1C)c1cccnc1 | 0.0246 | 0.0582 µM | 0.0337 | 0.225 µM | 13.8 | 49.1 µM | 0.0372 | 1.72 µM | 0.0221 | 0.0492 µM | 0.0534 | 14.7 µM | 0.0334 | 3.87 µM | 0.0365 | 15 µM | 0.0441 | > 84.8 µM | 0.0489 | 22.8 µM |
